Data from publication PMC11944515, “Host-Mediated Antimicrobial Effects and NLRP3 Inflammasome Modulation by Caulerpin and Its Derivatives in Macrophage Models of Mycobacterial Infections” (Microorganisms, 2025).

Legend:
RAW 264.7 cells = assay: Direct effects on RAW 264.7 cell viability (MTT); type: cell-based, murine
Description: The direct effects of CP and its analogues on RAW 264.7 viability were evaluated using the MTT method. RAW 264.7 cells were seeded at 1 × 10^4 cells/well (for 24 h incubation) and 5 × 10^3 cells/well (for 48 h incubation) and incubated overnight to allow adhesion. The culture medium was carefully aspirated and replaced with 100 μL DMEM plus 100 μL of test compound solutions, yielding final concentrations ranging from 3.25 to 30 µM (DMSO 1%, v/v). After 24 or 48 h of exposure to test compounds, cells were incubated with MTT (0.5 mg/mL) for 3 h. The resulting formazan crystals were dried, dissolved in DMSO, and absorbance was measured at 570 nm using a microplate reader (EL800, BioTek, Winooski, VT, USA). The precipitated purple formazan crystals were directly proportional to the number of metabolically active viable cells. The cell viability was then calculated as: Cell viability (%) = (Sample absorbance/Control absorbance) × 100. Data were expressed as mean of cell viability ± standard error of the mean from three to four independent experiments performed in triplicate.

[1] = system: Mycobacterium smegmatis mc2155; assay: M. smegmatis susceptibility by CFU enumeration; type: cell-based; conditions: 24 h incubation, CFU
[2] = system: M. smegmatis within RAW 264.7 macrophages; assay: Preventive effects (pre-incubation) in M. smegmatis-infected RAW 264.7 cells (CFU); type: cell-based, Mycobacterium smegmatis; conditions: for reduction of bacterial loads after pre-incubation, M. smegmatis / reduction of CFU counts after re-treatment, M. smegmatis: 15 μM; for reduction of CFU counts after re-treatment, M. smegmatis: pre-incubation and re-treatment, 12 h after infection
Description: For the second in vitro cellular infection test with M. smegmatis, RAW 264.7 were seeded in 96-well culture plates at a density of 1 × 10^4 cells/well in DMEM medium (with 10% FBS, without antibiotics) and incubated overnight at 37 °C with 5% CO2. Cells were pre-incubated with CP (15 μM), CA (30 μM), DE (15 μM), and DP (15 μM) for 8 h in DMEM medium. Infection of RAW 264.7 cells with M. smegmatis was performed at a multiplicity of infection of 1:1 for 2 h at 37 °C with 5% CO2 [20]. Infected RAW 264.7 were then lysed with 0.1% Triton–X100, and these suspensions were diluted and plated on LB agar. Remaining wells were then re-treated with the tested substances in DMEM medium. Macrophages were lysed after 12 h, and these suspensions were diluted and plated on LB prior to CFU counting. CFU/well was determined as previously described in the infection experiments using macrophages and M. smegmatis.

[3] = system: M. tuberculosis H37Ra in RAW 264.7 macrophages; assay: Therapeutic potential in M. tuberculosis-infected RAW 264.7 cells (CFU); type: cell-based, Mycobacterium tuberculosis; conditions: for effect on M. tuberculosis in RAW 264.7: DE 15 μM, CA 30 and 15 μM, 24 h and 48 h
Description: For the infection test with M. tuberculosis H37Ra, RAW 264.7 were seeded in 96-well culture plates at a density of 4 × 10^3 cells/well in DMEM medium (with 10% FBS, without antibiotics) and incubated overnight at 37 °C with 5% CO2 [20]. Infection of RAW 264.7 cells with M. tuberculosis was performed at a multiplicity of infection of 1:1 for 3 h at 37 °C with 5% CO2. The medium with non-internalized bacteria was removed and infected cells were then treated with the tested substances in DMEM:CP (15 µM, 7.5 µM, and 3.25 µM), CA (30 µM), and DE (15 µM) for 24 h and CA (30 µM and 15 µM) and DE (15 µM) for 48 h. Macrophages were lysed after incubations with 0.1% Triton–X100, and these suspensions were diluted and plated on Middlebrook 7H10 plus 10% OADC. Plates were incubated for 4 weeks at 37 °C and data were expressed as log10(CFU/well).

[4] = system: M. tuberculosis H37Ra in RAW 264.7 macrophages; assay: Preventive effects (pre-incubation) in M. tuberculosis-infected RAW 264.7 cells (CFU); type: cell-based, Mycobacterium tuberculosis; conditions: for effect on M. tuberculosis CFU counts after pre-incubation and re-treatment: 12 h after infection
Description: For the second cellular infection test with M. tuberculosis H37Ra, RAW 264.7 cells were seeded in 96-well culture plates at a density of 4 × 10 ^3 cells/well in DMEM medium (with 10% FBS, without antibiotics) and incubated overnight at 37 °C with 5% CO2. Cells were pre-incubated with the CP (15 µM), DE (15 µM), and CA (30 µM) compounds. Infection of RAW 264.7 cells with M. tuberculosis was performed at a multiplicity of infection of 1:1 for 3 h at 37 °C with 5% CO2 [20]. Infected RAW 264.7 were then lysed with 0.1% Triton-X100, and suspensions were diluted and plated on Middlebrook 7H10 agar plus OADC. Remaining wells were then re-treated with the test substances in DMEM medium. Macrophages were lysed after 12 h and plated on Middlebrook 7H10 containing OADC prior to CFU counting. CFU/well was determined as previously described in the infection experiments using macrophages and M. smegmatis.

Vero E6 cells = assay: Cytotoxicity on Vero E6 cells (MTT); type: cell-based, monkey; conditions: 24 h; for effect on Vero E6 cell viability: 30 to 120 µM, MTT; for IC50: Primates, Vero C1008, estimated
Description: (§1) Cytotoxicity was evaluated using the MTT method. For this purpose, two cell lines were tested: Vero E6 and HepG2. Both cell lines were seeded at 1 × 10^4 cells/well in 96-well microtiter plates and incubated overnight to adhere. The culture medium was carefully aspirated and replaced with 100 µL DMEM plus 100 µL of test compound solutions (CP, CA, and DE), yielding final concentrations ranging from 30 to 120 µM (1% DMSO, v/v). Cells were incubated with test compounds for 24 h at 37 °C in a 5% CO2 atmosphere. MTT solution (0.5 mg/mL) was subsequently added, and cells were incubated for an additional 3 h. The resulting formazan crystals were dried at room temperature for 24 h and dissolved in DMSO. Absorbance was measured at 570 nm (microplate reader EL800, BioTek, Winooski, VT, USA). Cell viability was calculated as previously described in the RAW 264.7 cell viability assay section.

HepG2 cells = assay: Cytotoxicity on HepG2 cells (MTT); type: cell-based, human; conditions: 24 h; for effect on HepG2 cell viability: 30 to 120 µM, MTT; for IC50: Homo sapiens, HepG2, estimated
Description: as §1

[5] = 8 h pre-incubation, immediately after 2 h of infection

Row | SMILES | effect on RAW 264.7 cell viability (RAW 264.7 cells; 24 h incubation, 3.25 to 30 µM) | effect on RAW 264.7 cell viability (RAW 264.7 cells; 48 h incubation) | inhibitory concentration against M. smegmatis [1] | reduction of bacterial loads after pre-incubation, M. smegmatis [2, 5] [log10] | reduction of CFU counts after re-treatment, M. smegmatis [2] [log10] | effect on M. tuberculosis in RAW 264.7 [3] | effect on M. tuberculosis CFU counts after pre-incubation and re-treatment ([4]; 15 μM) | effect of pre-incubation on M. tuberculosis bacterial loads ([4]; 15 μM, immediately after 3 h of infection) | effect on Vero E6 cell viability (Vero E6 cells) | IC50 (Vero E6 cells) [µM] | effect on HepG2 cell viability (HepG2 cells) | IC50 (HepG2 cells) [µM] | decrease of CFU counts after pre-incubation, M. smegmatis ([2]; 30 μM, 8 h pre-incubation, immediately after 2 h of infection) [log10] | effect on M. tuberculosis CFU counts after pre-incubation and re-treatment ([4]; 30 μM) | effect on M. tuberculosis in RAW 264.7, lower concentrations ([3]; 7.5 µM and 3.25 µM, 24 h) | decrease in CFU counts, M. tuberculosis in RAW 264.7 ([3]; 15 μM, 24 h of incubation) [log10]
1 | CCOC(=O)/C1=C/c2c([nH]c3ccccc23)/C(C(=O)OCC)=C\c2c1[nH]c1ccccc21 [DE, (6E,13E)-diethyl 5,12-dihydrocycloocta[1,2-b:5,6-b′]diindole-6,13-dicarboxylate] | affected cell viability at the concentration of 30 μM | did not affect cell viability at any concentration evaluated | higher than 15 μM | 0.402 | 0.182 | neither DE nor CA showed inhibitory effects at either timepoint | significant reductions in CFU counts | significantly reduced bacterial loads | did not significantly reduce cell viability | > 120 | did not significantly reduce cell viability | > 120 |  |  |  | 
2 | O=C(O)C1=Cc2c([nH]c3ccccc23)C(C(=O)O)=Cc2c1[nH]c1ccccc21 [CA, caulerpinic acid] | did not affect viability at any of the concentrations tested | did not affect cell viability at any concentration evaluated | higher than 30 μM |  |  | neither DE nor CA showed inhibitory effects at either timepoint |  |  | did not significantly reduce cell viability | > 120 | did not significantly reduce cell viability | > 120 | 0.407 | significant reductions in CFU counts |  | 
3 | COC(=O)/C1=C/c2c([nH]c3ccccc23)/C(C(=O)OC)=C\c2c1[nH]c1ccccc21 [CP, Caulerpin] | affected cell viability at the concentration of 30 μM | affected cell viability at the 2 highest concentrations tested, 15 and 30 μM | higher than 15 μM | 0.360 | 0.287 |  | significant reductions in CFU counts |  | did not significantly reduce cell viability | > 120 | did not significantly reduce cell viability | > 120 |  |  | no inhibitory effect | 0.250
